The numbers were not newly measured in patent EP0665714B1, “GRANULAR WATER SOLUBLE OR HYGROSCOPIC AGRICULTURAL FORMULATIONS AND METHODS OF MAKING THEM” (BASF CORPORATION, priority 1992, dated 1994), which cites them from elsewhere.

For the data set the following is noted: in general.

As to `C[N+]1(C)CCCCC1.[Cl-]` [mepiquat chloride, 1,1-dimethylpiperidinium chloride], the water solubility result is “more than 600 g/l”.
